{
  "source": "patent US10258691B2",
  "about": "(SignPath Pharma Inc., priority 2014, dated 2019)",
  "key": {"hERG [1]": {"target": "T1, hERG (Homo sapiens, UniProt Q12809)", "T1 sequence (Q12809 whole entry)": "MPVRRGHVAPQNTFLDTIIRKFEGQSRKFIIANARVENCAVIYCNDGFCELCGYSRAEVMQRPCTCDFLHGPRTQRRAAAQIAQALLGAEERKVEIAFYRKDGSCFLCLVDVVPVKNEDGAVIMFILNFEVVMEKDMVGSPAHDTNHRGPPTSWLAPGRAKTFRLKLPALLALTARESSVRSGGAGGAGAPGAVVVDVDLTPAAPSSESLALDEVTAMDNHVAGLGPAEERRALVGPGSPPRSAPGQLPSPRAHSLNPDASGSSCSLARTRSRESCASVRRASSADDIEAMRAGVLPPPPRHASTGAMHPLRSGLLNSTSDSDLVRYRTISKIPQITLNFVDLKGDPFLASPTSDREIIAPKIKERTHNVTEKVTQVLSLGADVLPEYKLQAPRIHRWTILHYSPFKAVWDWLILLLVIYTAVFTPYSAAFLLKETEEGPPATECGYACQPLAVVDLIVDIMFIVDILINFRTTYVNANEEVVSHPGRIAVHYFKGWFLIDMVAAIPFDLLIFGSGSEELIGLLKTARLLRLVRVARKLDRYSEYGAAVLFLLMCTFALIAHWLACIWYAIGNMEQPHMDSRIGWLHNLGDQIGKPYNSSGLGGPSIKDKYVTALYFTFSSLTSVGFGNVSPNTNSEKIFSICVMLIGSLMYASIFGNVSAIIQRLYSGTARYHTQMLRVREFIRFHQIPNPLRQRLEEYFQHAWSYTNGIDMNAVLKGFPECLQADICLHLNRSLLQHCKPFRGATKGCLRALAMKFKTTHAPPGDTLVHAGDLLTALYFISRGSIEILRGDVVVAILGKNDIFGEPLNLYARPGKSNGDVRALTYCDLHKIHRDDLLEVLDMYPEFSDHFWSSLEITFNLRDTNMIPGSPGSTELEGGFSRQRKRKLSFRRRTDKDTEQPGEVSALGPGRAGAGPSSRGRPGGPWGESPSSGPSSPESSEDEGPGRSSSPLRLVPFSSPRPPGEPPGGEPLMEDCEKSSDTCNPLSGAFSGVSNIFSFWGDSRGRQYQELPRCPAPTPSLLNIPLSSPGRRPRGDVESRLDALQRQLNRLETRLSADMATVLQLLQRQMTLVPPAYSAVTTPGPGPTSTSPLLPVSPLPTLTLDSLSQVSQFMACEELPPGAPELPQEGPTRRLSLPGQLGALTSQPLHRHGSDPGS", "assay": "Whole-cell patch-clamp, protective effect of 10:0-18:0 Lyso PG and 14:0 EGPG against hERG inhibition by Nilotinib", "assay_type": "cell-based", "parameters": "expressed in transfected cells; host or cells: HEK 293, stably transfected with the hERG gene (HEK-hERG)", "settings": "for protective effect against hERG inhibition by Nilotinib (in words): PLs/Nilo ratio 9:1; for inhibition of the hERG tail current (in words): lipid alone or Nilotinib 0.5 μg/mL formulated with lipid […] (9:1)", "protocol": "The purpose of this study is to evaluate in vitro the protective effect of 10:0 Lyso PG, 12:0 Lyso PG, 14:0 Lyso PG, 16:0 Lyso PG, 18:0 Lyso PG and 14:0 EGPG on the rapidly activating delayed-rectifier potassium selective current (IK) generated under normoxic conditions in stably transfected Human Embryonic Kidney cells (HEK 293 cells).\nThe test samples were prepared as follows. […] The solution was vortexed for 10 minutes before being used in the patch-clamp assay.\nTest performed: Whole-cell patch-clamp current acquisition and analysis. Temperature: 35±2° C. Original data acquisition design: Acquisition Rate(s): 1.0 kHz.\nPatch-clamp current recording. […] Isolated cells were plated into 2-mL experimental chambers, mounted on the platform of an inverted microscope. The cells were superfused with external solution (in mM: NaCl 140.0, KCl 5.0, CaCl2 1.8, MgCl2 1.0, HEPES 10.0, dextrose 10.0, pH 7.4±0.05). A 2-10 MΩ resistance pipette was filled with the pipette solution (in mM: KCl 140.0, MgCl2 1.0, Mg-ATP 4.0, EGTA 5.0, HEPES 10.0, sucrose 10.0, pH 7.4±0.05), and brought to contact the external membrane of a single cell.\nApplication of test samples: 5 minutes of exposure to each concentration in presence of closed circuit perfusion (2 mL/min). 5 minutes for washout periods in presence of a flow-through perfusion (2 mL/min) in addition to a closed circuit perfusion (2 mL/min). […] Cells were under continuous stimulation of the pulses protocol throughout the studies and cell currents were recorded after 5 minutes of exposure to each condition.\nStatistical analysis: Statistical comparisons were made using paired Student's t-tests, comparing each treatment period with its corresponding value at the baseline condition. The currents recorded after the exposure of each test sample were compared to the currents recorded in baseline conditions. Differences were considered significant when p≤0.05.\nEffect of the Test Samples on whole-cell IKr hERG currents. Whole-cell currents elicited during a voltage pulse were recorded in baseline conditions and following the application of the selected concentration of test sample. The cells were depolarized for one second from the holding potential (−80 mV) to a maximum value of +40 mV, starting at −40 mV and progressing in 10 mV increments. The membrane potential was then repolarized to −55 mV for one second, and finally returned to −80 mV.\nWhole-cell tail current amplitude was measured at a holding potential of −55 mV, following activation of the current from −40 to +40 mV. Current amplitude was measured at the maximum (peak) of this tail current. Current density was obtained by dividing current amplitude by cell capacitance measured prior to capacitive transient minimization.\nCurrent run-down and solvent effect correction. All data points presented in this example were corrected for solvent effect and time-dependent current run-down. Current run-down and solvent effects were measured simultaneously by applying the study design in test sample-free conditions over the same time frame as was done with the test sample. The loss in current amplitude measured during these so-called vehicle studies (representing both solvent effects and time-dependent run-down) was subtracted from the loss of amplitude measured in the presence of the test sample to isolate the effect of the test sample, apart from the effect of the solvent and the inevitable run-down in current amplitude over time."}, "hERG [2]": {"target": "T1, hERG", "assay": "Whole-cell patch-clamp, protective effect of DMPC, DMPG, DMPC/DMPG, LysoPG and LysoPC against hERG inhibition by Nilotinib", "settings": "for inhibition of the hERG tail current density (in words) / Corrected Normalized Current Density / Normalized Current Density: HEK 293; for inhibition of the hERG tail current density (in words): lipid alone or Nilotinib 0.1 μM formulated in aqueous solution with lipid; for Corrected Normalized Current Density: corrected for solvent effect and current run-down, baseline 1.000; for Corrected Normalized Current Density / Normalized Current Density: Nilotinib 0.1 μM (alone in DMSO, with lipid in aqueous solution), 14:0 LysoPG […]; for Normalized Current Density: hERG tail current density relative to baseline 1.000, 5 min exposure; for protection against hERG inhibition caused by Nilotinib (in words): in vitro, co-formulated with Nilotinib"}, "Male Hartley guinea pigs": {"test_system": "Male Hartley guinea pigs", "assay": "Moxifloxacin-induced QTc prolongation in guinea pigs, oral phospholipids", "assay_type": "in vivo, guinea pig", "settings": "for mitigation of MF-induced QT prolongation (in words): oral gavage 2 hours before 20 mg/kg i.v. MF, PL to drug ratio 1:1 (FIG. 11A)"}, "Sprague Dawley male rats": {"test_system": "Sprague Dawley male rats", "assay": "Moxifloxacin-induced QTc prolongation in rats, oral complex pre-treatment", "assay_type": "in vivo", "settings": "rat; Moxifloxacin 20 mg/kg i.v. over 20 minutes", "excerpt": "Methods. The present inventors formulated the product in a complex mixture as an oral application in order to facilitate drug delivery in cancer patients being treated with oral LQTS inducing drugs. Preclinical evaluation of the oral application was done by instrumented Sprague Dawley male (250-300 g) rats. Cutaneous ECG leads were used to maximize T wave detection. The animals in groups of 3 rats were briefly anesthetized with a light dose of isoflurane, and a pre-treatment ECG was obtained to establish well-defined T waves, and to rule-out existing arrhythmic predispositions. Pre-treatment ECG profiles were normal.\nA single dose of the oral complex in the ratio of 9:1 Moxifloxicin was vortexed continuously for 5 minutes to obtain an emulsion and immediately administered by gavage. Moxifloxacin, a broad spectrum antibiotic with documented LQTS activity, was formulated in DMSO and 2 hours afterwards infused intravenously (femoral canula) over 20 minutes at a starting dose of 2.8 mg/kg. ECGs were recorded from 5 minutes prior to and during the 20 minute infusion. Then the animals were dosed at 6.1 mg/kg over 20 minutes; then 20 mg/kg over 20 minutes. In a positive control group moxifloxacin was infused alone. In a second group of rats the complex was given orally 2 hours prior to the first dose of moxifloxacin. […]"}, "HEK293 cell": {"test_system": "HEK293 cell", "settings": "20 μM, 24 h incubation; cited from earlier work"}, "rabbits": {"test_system": "rabbits", "settings": "intravenous injection of 20 mg; cited from earlier work"}},
  "note": "Where “and” joins values, the source holds several entries; their conditions need not be identical. Equal values may be shown once. Entries after “also recorded” stand apart in the source; their conditions may differ. Where a name gives a salt, the structure may show the parent alone.",
  "data": [
    {"smiles": "CCCCCCCCCC(=O)OC[C@@H](O)COP(=O)([O-])OCC(O)CO.[Na+]", "note": "(mixture of isomers) [10:0 LysoPG, 1-decanoyl-2-hydroxy-sn-glycero-3-[phospho-rac-(1-glycerol)] sodium salt]", "values": [
      {"measurement": "protective effect against hERG inhibition by Nilotinib (in words)", "setting": "hERG [1]", "result": "prevented the inhibition"},
      {"measurement": "inhibition of the hERG tail current (in words)", "setting": "hERG [1]", "result": "did not cause any inhibition"}
    ]},
    {"smiles": "CCCCCCCCCCCC(=O)OC[C@@H](O)COP(=O)([O-])OCC(O)CO.[Na+]", "note": "(mixture of isomers) [12:0 LysoPG, 1-dodecanoyl-2-hydroxy-sn-glycero-3-[phospho-rac-(1-glycerol)] sodium salt]", "values": [
      {"measurement": "protective effect against hERG inhibition by Nilotinib (in words)", "setting": "hERG [1]", "result": "prevented the inhibition"},
      {"measurement": "inhibition of the hERG tail current (in words)", "setting": "hERG [1]", "result": "did not cause any inhibition"}
    ]},
    {"smiles": "CCCCCCCCCCCCCC(=O)OC[C@@H](O)COP(=O)(O)OCC(O)CO", "note": "(mixture of isomers) [14:0 LysoPG, 1-myristoyl-2-hydroxy-sn-glycero-3-[phospho-rac-(1-glycerol)] sodium salt]", "values": [
      {"measurement": "protective effect against hERG inhibition by Nilotinib (in words)", "setting": "hERG [1]; listed as 14:0 Lyso PG, sodium salt", "result": "higher protective"},
      {"measurement": "protective effect against hERG inhibition by Nilotinib (in words)", "setting": "hERG [1]; sodium salt", "result": "prevented the inhibition; also recorded: most potent"},
      {"measurement": "inhibition of the hERG tail current (in words)", "setting": "hERG [1]", "result": "did not cause any inhibition"},
      {"measurement": "inhibition of the hERG tail current density (in words)", "setting": "hERG [2]", "result": "did not cause any inhibition"},
      {"measurement": "Corrected Normalized Current Density", "setting": "hERG [2]", "result": 1.124},
      {"measurement": "Normalized Current Density", "setting": "hERG [2]", "result": 0.930},
      {"measurement": "protection against hERG inhibition caused by Nilotinib (in words)", "setting": "hERG [2]", "result": "protects against hERG inhibition"}
    ]},
    {"smiles": "CCCCCCCCCCCCCCCC(=O)OC[C@@H](O)COP(=O)([O-])OCC(O)CO.[Na+]", "note": "(mixture of isomers) [16:0 LysoPG, 1-palmitoyl-2-hydroxy-sn-glycero-3-[phospho-rac-(1-glycerol)] sodium salt]", "values": [
      {"measurement": "protective effect against hERG inhibition by Nilotinib (in words)", "setting": "hERG [1]; listed as 16:0 Lyso PG, sodium salt", "result": "higher protective"},
      {"measurement": "protective effect against hERG inhibition by Nilotinib (in words)", "setting": "hERG [1]; sodium salt", "result": "prevented the inhibition; also recorded: most potent"},
      {"measurement": "inhibition of the hERG tail current (in words)", "setting": "hERG [1]", "result": "did not cause any inhibition"}
    ]},
    {"smiles": "CCCCCCCCCCCCCCCCCC(=O)OC[C@@H](O)COP(=O)([O-])OCC(O)CO.[Na+]", "note": "(mixture of isomers) [18:0 LysoPG, 1-stearoyl-2-hydroxy-sn-glycero-3-[phospho-rac-(1-glycerol)] sodium salt]", "values": [
      {"measurement": "protective effect against hERG inhibition by Nilotinib (in words)", "setting": "hERG [1]", "result": "prevented the inhibition"},
      {"measurement": "inhibition of the hERG tail current (in words)", "setting": "hERG [1]", "result": "did not cause any inhibition"}
    ]},
    {"smiles": "CCCCCCCCCCCCCC(=O)OCCOP(=O)(O)OCC(O)CO.N", "note": "(centres unmarked) [14:0 EGPG, 2,3-dihydroxypropyl(2-[tetradecanoyloxy]ethyl)phosphate (ammonium salt)]", "values": [
      {"measurement": "mitigation of MF-induced QT prolongation (in words)", "setting": "Male Hartley guinea pigs", "result": "prevented the MF-induced QTs prolongation"},
      {"measurement": "protective effect against hERG inhibition by Nilotinib (in words)", "setting": "hERG [1]; (ammonium salt)", "result": "prevented the inhibition; also recorded: higher protective"},
      {"measurement": "inhibition of the hERG tail current (in words)", "setting": "hERG [1]", "result": "did not cause any inhibition"}
    ]},
    {"smiles": "CCCCCCCCCCCCCC(=O)OC[C@H](COP(=O)([O-])OCC(O)CO)OC(=O)CCCCCCCCCCCCC.[Na+]", "note": "(some centres unmarked) [DMPG, 1,2-dimyristoyl-sn-glycero-3-[phosphoric-(1-glycerol)] (sodium salt)]", "values": [
      {"measurement": "mitigation of MF-induced QT prolongation (in words)", "setting": "Male Hartley guinea pigs", "result": "prevented the MF-induced QTs prolongation"},
      {"measurement": "inhibition of the hERG tail current density (in words)", "setting": "hERG [2]", "result": "did not cause any inhibition"},
      {"measurement": "Corrected Normalized Current Density", "setting": "hERG [2]", "result": 0.994},
      {"measurement": "Normalized Current Density", "setting": "hERG [2]", "result": 0.800},
      {"measurement": "protection against hERG inhibition caused by Nilotinib (in words)", "setting": "hERG [2]; (sodium salt)", "result": "protects against hERG inhibition; also recorded: abrogated the effects of nilotinib"}
    ]},
    {"smiles": "COc1c(N2C[C@@H]3CCCN[C@@H]3C2)c(F)cc2c(=O)c(C(=O)O)cn(C3CC3)c12", "note": "[Moxifloxacin]", "values": [
      {"measurement": "QTc prolongation", "setting": "Sprague Dawley male rats", "result": "48 ms and 55 ms"},
      {"measurement": "QTc prolongation", "setting": "Male Hartley guinea pigs; 20 mg/kg i.v. MF", "result": 35, "unit": "ms"}
    ]},
    {"smiles": "Cc1cn(-c2cc(NC(=O)c3ccc(C)c(Nc4nccc(-c5cccnc5)n4)c3)cc(C(F)(F)F)c2)cn1", "note": "[Nilotinib, reference compound]", "values": [
      {"measurement": "inhibition at 5 min, 1 μM", "setting": "hERG [1]; human, HEK 293 cells stably transfected with hERG, pH 7.4, read-out: inhibition of the hERG tail current", "result": 70, "unit": "%"}
    ]},
    {"smiles": "COc1cc(/C=C/C(=O)/C=C(O)/C=C/c2ccc(O)c(OC)c2)ccc1O", "note": "[curcumin, Curcumin]", "values": [
      {"measurement": "HEK293 cell viability", "setting": "HEK293 cell", "result": "reduced the HEK293 cell viability"},
      {"measurement": "cardiac repolarization manifested by QTc values", "setting": "rabbits", "result": "did not affect the cardiac repolarization"}
    ]}
  ]
}
